# Source: patent US20140220154A1, “METHOD OF TREATING PATHOLOGIC HETEROTOPIC OSSIFICATION” (The United States of America, as represented by the …, priority 2011, published 2014)
# Entries after “also recorded” stand apart in the source; their conditions may differ.
# Columns and labels:
# [1] = tested on: bone marrow mesenchymal cells (BMMC); assay: Osteoblastic differentiation of BMMC after removal of Gαs (Von Kossa, Alizarin red staining); format: cell-based, mouse; conditions: osteogenic media 7 days
# Protocol: FIG. 13: Removal of Gαs from bone marrow mesenchymal cells (BMMC) promotes osteoblastic differentiation, which is inhibited by Hh antagonist, GANT-58 treatment in a dose-dependent manner. BMMCs were isolated from Gαsflox/flox mice and infected with a Cre-containing adenovirus (ad-Cre) to remove Gαs or GFP-containing adenovirus (Ad-GFP) control. Cells were grown to confluence and placed in osteogenic media for 7 days. […] No effect of GANT-58 observed in Ad-GFP treated cells (panels c and e compared to a).
# HO requires an inappropriate increase in bone forming cells (osteoblasts) The role of Gαs in promoting osteoblastic differentiation was tested. Bone marrow mesenchymal cells (BMMC) (also called mesenchymal stem cells) were isolated from Gαs^flox/flox mice. BMMC were isolated by flushing the bone marrow cavity of 6 week old mice and plating cells in Alpha-MEM, 20% FBS, 100 U/mL penicillin, 100 μg/mL streptomycin, 2 mM glutamine. Prior to reaching confluence cells were treated with a Cre- or GFP-containing adenovirus. Upon reaching confluence cells were switched to osteogenic media (DMEM, 10% lot-selected FBS, 100 U/mL penicillin, […] streptomycin, 2 mM glutamine, 10^-4M L-ascorbic acid 2-phosphate and 10 mM α-glycerol phosphate). These cells were infected with a Cre-containing adenovirus to remove Gαs and cultured under conditions that favor osteogenic differentiation. […]
# [2] = tested on: Hh pathway activation (Ptch1, Gli1, HIP); assay: Limb culture of E14.5 limbs with qRT-PCR for markers of Hh pathway activation; format: cell-based; conditions: Prx1-cre+; Gαs^flox/− mouse limbs isolated at E14.5, cultured in vitro 4 days, 5 μM ATO vs vehicle
# Protocol: FIG. 8: ATO inhibits elevated Hh signaling in Prx1-cre+; Gαs^flox/− mouse limbs. Control and Prx1-cre+; Gαs^flox/− mouse limbs were isolated at E14.5 and cultured in vitro for 4 days in the BGJB media containing vehicle or 5 μM ATO. Limbs were then collected, RNA isolated and qRT-PCR was performed for markers of Hh pathway activation (Ptch1, Gli1, HIP). In the absence of ATO, expression of these markers was elevated relative to control (6-fold, 5-fold and 17-fold, respectively).
# The formation of HO indicated inappropriate upregulation of a pro-osteogenic pathway (e.g. BMP, Wnt, and/or hedgehog) outside the skeleton. As Gαs is a physiologically important activator of protein kinase A (PKA) and PKA is a potent inhibitor of Hedghehog (Hh) signaling (Jiang, et al., 1995, Cell 80, 563-572), loss of Gαs is likely associated with an upregulation of Hh that was driving HO formation. Accordingly, Hh signaling would be elevated prior to HO formation and overlap in its tissue expression. Quantitative reverse transcriptase polymerase chain reaction (qRT-PCR) was performed on RNA isolated from control and Prx1-cre+; Gαs^flox/− mutant limb tissue at E14.5, prior to HO formation. The following primers were used for qRT-PCR: […]
# Relative expression was quantified using the […] method (Livak, et al., 2001, Methods 25, 402-08). […]
# [3] = tested on: Prx1-cre+; Gαs^flox/− mice; assay: HO formation in vivo in Prx1-cre+; Gαs^flox/− pups from treated pregnant females (Alizarin Red-Alcian Blue staining); design: species or system mouse
# Protocol: FIG. 12: ATO inhibits HO formation in Prx1-cre+; Gαs^flox/− mice. Pregnant females were injected with either […] ATO or vehicle at E13.5, E15.5 and E17.5 and embryos were collected at E18.5. An Alizarin Red-Alcian Blue skeletal prep was performed to assay for the presence of HO between the digits.
# Embryos were skinned and placed in 100% EtOH overnight to fix. Embryos were then placed in staining solution for 2 days (50 mL staining solution=2.5 mL 0.3% Alcian Blue, 2.5 mL 0.1% Alizarin Red, 2.5 mL 100% glacial acetic acid, 42.5 mL 70% EtOH). Embryos were rinsed with water, then placed in 1% KOH until destained, and finally in 80% glycerol for storage.
# Inhibitors of Hh signaling were tested for an ability to inhibit the formation of HO in vivo. Matings were established between Prx1-cre+; Gαs^flox/− male and Gαs^flox/flox female mice. Pregnant females at gestational days E13.5, E15.5 and E17.5 were injected intraperitoneally with 5 mg/kg ATO. Pregnant mice are first weighed and then injected with care so as to avoid injection into uteri. Mice were sacrificed at E18.5, pups were collected, and stained for bone formation by Alizarin Red-Alcian Blue staining. Prx1-cre+; Gαs^flox/− pups from mice injected with vehicle control produced HO as evidenced by enhanced red staining in soft tissues. […]
Compound,"tissue mineralization, Von Kossa staining ([1]; Ad-Cre infected BMMC (Gαs removed))","effect on mineralization in control cells, Von Kossa staining ([1]; Ad-GFP treated BMMC (control))","expression of markers of Hh pathway activation (Ptch1, Gli1, HIP) by qRT-PCR [2]","HO in forelimb and hind limb, Alizarin Red-Alcian Blue staining ([3]; pregnant females injected intraperitoneally with 5 mg/kg ATO at E13.5, E15.5 and E17.5, pups collected at E18.5, vs vehicle control)","levels of HO in forelimbs and hind limbs, Alizarin Red-Alcian Blue skeletal prep ([3]; pregnant females injected with 5 μg/kg ATO at E13.5, E15.5 and E17.5, embryos collected at E18.5, relative to vehicle)"
c1cc(-c2sc(-c3ccncc3)c(-c3ccncc3)c2-c2ccncc2)ccn1 [GANT-58],inhibited by GANT-58 in a dose-dependent manner,No effect,,,
arsenic trioxide [ATO],,,dramatic reduction in the Hh pathway activation; also recorded: significantly reduced,significant reduction in HO,reduced levels of HO
